Consider 4 compounds from PMC12257510, “Structure-Guided Design of a KMT9 Inhibitor Prodrug with Cellular Activity” (Journal of Medicinal Chemistry, 2025).

Series [1] concerns the target T1, KMT9 (Homo sapiens, UniProt Q9Y5N5).
T1 sequence (Q9Y5N5 1-214): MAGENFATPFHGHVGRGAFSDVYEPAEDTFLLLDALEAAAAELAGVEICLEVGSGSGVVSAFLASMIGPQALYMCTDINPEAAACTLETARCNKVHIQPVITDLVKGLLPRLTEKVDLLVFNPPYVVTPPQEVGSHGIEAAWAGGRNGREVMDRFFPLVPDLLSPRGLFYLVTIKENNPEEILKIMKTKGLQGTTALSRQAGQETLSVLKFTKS
T1 sequence (Q9UI30 1-125 partner): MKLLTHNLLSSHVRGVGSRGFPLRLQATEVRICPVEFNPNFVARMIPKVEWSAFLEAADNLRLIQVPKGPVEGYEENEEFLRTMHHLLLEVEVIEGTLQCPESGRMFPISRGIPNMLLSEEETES
More on the design: method as in previous study. The following applies: compound 2d taken as a reference from the previous study; ref previous study; cited from earlier work.

Series [2] deals with T1, KMT9. The arrangement: method as in previous study. The following applies: compound 2d taken as a reference from the previous study; ref previous study; cited from earlier work. The source holds these as a separate data set.
The target in series [3] is T1, KMT9. In words: Microscale thermophoresis (MST) binding assay. The following applies: for Kd: MST, binding to KMT9, read-out: Kd. The method, then: To determine the binding affinity of the compound and KMT9, microscale thermophoresis (MST) analysis was performed with a NanoTemper Monolith NT.115 instrument (NanoTemper Technologies GmbH). KMT9 was labeled with a RED-Tris-NTA labeling kit (NanoTemper Technologies GmbH) based on the manufacturer’s instructions. Buffer including 25 mM HEPES (pH 7.5), 100 mM NaCl, 1 mM DTT and 0.05% Tween was used for the reaction buffer. Varying concentrations of compounds were titrated against His-tag labeled KMT9 proteins (20 nM). Samples were loaded into standard Capillaries (NanoTemper Technologies GmbH) and MST measurements were performed using 40% MST power and 100% LED power. For each set of binding experiments, MST measurement was carried out with Binding Affinity module in MO. Control program under Nano-RED excitation. Data sets were processed with the MO.Affinity Analysis software (NanoTemper Technologies GmbH).
(Microscale thermophoresis detects binding through changes in fluorescence in a small temperature gradient.)

Series [4] concerns the target T1, KMT9. More on the design: method as in previous study. The following applies: compound 2d taken as a reference from the previous study; ref previous study; cited from earlier work. The source holds these as a separate data set.
The target of series [5] is T1, KMT9. The series can be described thus: KMT9 methyltransferase inhibition assay (3H-SAM, ETF1 substrate).
Method: The assay was carried out in 0.5 mL Eppendorf tubes in duplicates. Assay buffer consisted of 50 mM BTP, 1 mM MgCl2, 1 mM DTT and 0,01% Triton-X100 at a pH of 8.5 (adjusted using 1 M HCl and 1 M NaOH). 20X inhibitor stock (in DMSO), 2× enzyme stock and 4× substrate mix (both in assay buffer) were prepared. The substrate mix consisted of Tritium-labeled S-adenosylmethionine (3H-SAM), S-adenosylmethionine (SAM) and eukaryotic peptide chain release factor subunit1 (, residues 140–275) (ETF1). Final assay concentrations were set to 25 nM KMT9, 0.3 μM 3H-SAM, 0.7 μM SAM and 5 μM ETF1. […] Five μL of 4× substrate mix was added to initiate the reaction. The final reaction volume was 20 μL. For the positive control, the compound was replaced by DMSO; for the negative control, the compound was replaced by DMSO and KMT9 was replaced by assay buffer. The reaction mix was incubated in an Eppendorf thermomixer comfort at 30 °C for 2 h, shaking at 300 rpm. The reaction was quenched using 5 μL 50% trichloroacetic acid (TCA) and incubated at 25 °C for 5 min. Twenty-two μL of the mixture was transferred into 96-well MultiScreenHTS FB filter plates (Merck KGaA, Darmstadt, Germany) and washed four times with 10% TCA and two times with 100% ethanol. The plate was dried overnight, the filters were transferred into individual 6 mL Pony Vials (PerkinElmer Inc., Waltham, MA, USA) and incubated in 3 mL of Ultima Gold scintillation cocktail (PerkinElmer Inc., Waltham, MA, USA) for 30 min. The scintillation signal was measured for 3× 1 min using TriCarb 2910 TR (PerkinElmer) scintillation counter in 3H CPM mode (LL: 0, UL: 18.6).
Inhibition was calculated using the following formula: Inhibition[%]=(1−xc−xpos/xpos−xneg)×100
With xc: signal of compound, xpos: mean signal of positive control, xneg: mean signal of negative control. Data fitting was carried out by GraphPad 7.0 using nonlinear fit ([Inhibitor] vs response – variable slope (four parameters)).
Series [6] has as its target T1, KMT9. In words: Thermal shift assay (SyproOrange). It counts as binding. The note with it: thermal shift, 2 μM KMT9, 500 μM compound; read-out: ΔTm. Here is the method:
The assay was carried out in 96-well Hard-Shell PCR plates (Bio-Rad Laboratories Inc.). […] Final assay concentrations were set to 500 μM of compound 8, 2 μM KMT9 and 5× SO. One μL of 20× compound, 4 μL of assay buffer, 10 μL of 2× KMT9 and 5 μL of 4× SO were pipetted. For the no-compound control, 20× inhibitor stock was replaced by DMSO. The final volume was 20 μL. The plate was spun down at 700 rpm for 1 min using a Hettich UNIVERSAL 320 centrifuge and incubated at 25 °C, shaking at 600 rpm. After incubation, the plate was spun down for 1 min at 700 rpm and measurement was conducted using a CFX96 Touch Real-Time PCR Detection System (Bio-Rad Laboratories Inc.). The plate was equilibrated at 20 °C for 4 min and then heated stepwise at a rate of 1 °C per 15 s until 95 °C. After every step, fluorescence was measured in FRET mode. Calculation of melting points was conducted by a Boltzman sigmoidal model using GraphPad Prism 7.0.

The target in series [7] is T2, KMT5A (Homo sapiens, UniProt Q9NQR1).
T2 sequence (Q9NQR1 1-393): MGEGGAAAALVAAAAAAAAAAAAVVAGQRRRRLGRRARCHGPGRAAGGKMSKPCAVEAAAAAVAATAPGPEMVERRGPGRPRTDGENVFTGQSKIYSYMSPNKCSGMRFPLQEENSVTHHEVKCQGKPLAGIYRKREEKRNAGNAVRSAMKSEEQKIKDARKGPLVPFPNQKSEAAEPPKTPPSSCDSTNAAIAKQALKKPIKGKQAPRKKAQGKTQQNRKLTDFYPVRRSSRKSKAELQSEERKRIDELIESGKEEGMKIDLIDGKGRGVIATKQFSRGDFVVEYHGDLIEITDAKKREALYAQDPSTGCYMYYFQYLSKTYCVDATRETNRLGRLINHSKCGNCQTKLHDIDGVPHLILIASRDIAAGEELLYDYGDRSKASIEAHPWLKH
The series can be described thus: CETSA in SW480 cell lysate, KMT5A (negative control). The format is binding. The arrangement: endogenous in cells; host or cells: SW480. The following applies: negative control protein. The method, then: (§1) For whole cell CETSA, the cells were incubated with 10/15 μM of compound 7b/8/8-N for 18 h. Then, cells were washed with cell culture medium, detached from the surface using trypsin, washed with PBS and the number of cells was determined. Cell concentration was adjusted to 3.6 × 10^7 cells/mL using in PBS with Complete (w/o EDTA, Roche) protease inhibitor. Then, cells were frozen in liquid nitrogen and thawed at 25 °C three times, before being divided in 16 aliquots. Each aliquot was heated to a defined temperature between 40 and 70 °C in a PCR cycler (16 well gradient, 55 °C ± 15). After 3 min incubation, aliquots were snap frozen in liquid nitrogen and thawed at 25 °C. Cell lysates were then centrifuged at 20,000 × g , 4 °C for 20 min. Supernatant were mixed with 5× loading buffer, heated to 70 °C for 5 min and analyzed by Western blotting essentially as previously described. For the CETSA performed with cell lysates, cells were directly harvested and lysed as described above. […]
(§2) Figure S4. […] Representative Western blots (A) and quantification (B) showing no obvious shifting melting temperatures (ΔT m) of endogenous KMT5A upon treatment with compound 7b compared to DMSO. […]
(§3) Representative Western blots (C) and quantification (D) showing no shifting melting temperatures (ΔT m) of endogenous KMT5A upon treatment with compound 8 compared to DMSO. […]

The target of series [8] is T3, endogenous KMT9a (Homo sapiens, UniProt Q9Y5N5).
T3 construct: increased thermal stability of endogenous KMT9 in SW480 cell lysates; endogenous in cells; host or cells: SW480
T3 sequence (Q9Y5N5 1-214): T1 sequence (Q9Y5N5 1-214)
T3 sequence (Q9UI30 1-125 partner): T1 sequence (Q9UI30 1-125 partner)
In words: CETSA in intact SW480 cells, KMT9. The format is cell-based. The following applies: 18 h, vs DMSO. Here is the method: (§4) For whole cell CETSA, the cells were incubated with 10/15 μM of compound 7b/8/8-N for 18 h. Then, cells were washed with cell culture medium, detached from the surface using trypsin, washed with PBS and the number of cells was determined. Cell concentration was adjusted to 3.6 × 10^7 cells/mL using in PBS with Complete (w/o EDTA, Roche) protease inhibitor. Then, cells were frozen in liquid nitrogen and thawed at 25 °C three times, before being divided in 16 aliquots. Each aliquot was heated to a defined temperature between 40 and 70 °C in a PCR cycler (16 well gradient, 55 °C ± 15). After 3 min incubation, aliquots were snap frozen in liquid nitrogen and thawed at 25 °C. Cell lysates were then centrifuged at 20,000 × g , 4 °C for 20 min. Supernatant were mixed with 5× loading buffer, heated to 70 °C for 5 min and analyzed by Western blotting essentially as previously described. For the CETSA performed with cell lysates, cells were directly harvested and lysed as described above. The lysates were then split and incubated either with DMSO or 10 μM compound 7b for 2 h. Then, lysates were aliquoted again into 16 samples each and treated as described for the whole cell CETSA.

Series [9] deals with T3, endogenous KMT9a. The series can be described thus: CETSA in SW480 cell lysate, KMT9. The format is binding. The note with it: 2 h, vs DMSO. The method, then: as §4
Series [10] relates to panel of 27 SET domain-containing and 14 Rossmann-fold methyltransferases. The series can be described thus: Selectivity assay, radiometric methyltransferase panel. It counts as biochemical. The following applies: IC50 panel, 3H-labeled SAM. The method, then: Selectivity profile of compound 6 was evaluated by testing the IC50 in a panel of methyltransferases. The IC50 of a panel of SET-domain containing and Rossmann-fold methyltransferases was assessed in a radiometric assay measuring substrate methylation using ^3H-labeled SAM by RBC Corp by compound 6. Data was process and plotted using KNIME Analytic Platform from KNIME AG.

Series [11] relates to H4K12me1 levels in PC-3 M prostate tumor cells. In words: Western blot of cellular H4K12me1 levels. The format is cell-based. The following applies: PC-3 M cells, 10 μM, 3 days. Here is the method: 7 Cellular activity of prodrug compound 8. (A) Levels of H4K12me1 in PC-3 M prostate tumor cells cultured in the presence of DMSO (−), 10 μM compound 8 or compound 8-N for 3 days were analyzed by Western blot using the indicated antibodies. Histone H4 was used as control. (B, C) Proliferation of Caco-2 cells treated with DMSO (Ctrl), compound 8, or compound 8-N were measured by Xcelligence. Data represent means ± s.d (n = 3). (D) Proliferation of HepG2 cells upon treatment of DMSO (Ctrl) and compound 8.
Experiments were performed as previously described. Histones used for Western blot analysis were extracted from cells as following: Cells were harvested, washed with PBS, resuspended in Triton Extraction Buffer (TEB; PBS, Triton ×100, 2 mM PMSF, 0.02% NaN3), stored 10 min on ice, centrifuged, and supernatant was discarded. After washing cells, a second time with TEB, pellets were resuspended in 0.2 N HCl and histones were acid-extracted overnight at 4 °C. Upon centrifugation for 10 min at 2000 rpm, supernatant was collected and protein concentration was determined. Three days before harvesting, cells were transfected with siRNA as indicated. The following antibodies were used: anti-KMT9α (#27630, lot 20062017, Schüle Lab), antihistone H4 (#ab10158, lot GR322677–1, Abcam), anti-H4K12me1 (#27429, lot 27062017, Schüle Lab).
On the technique in general: A western blot detects proteins with antibodies after separation by electrophoresis.

Series [12] has as its target T4, KMT9a (Homo sapiens, UniProt Q9Y5N5).
T4 sequence (Q9Y5N5 1-214): T1 sequence (Q9Y5N5 1-214)
T4 sequence (Q9UI30 1-125 partner): T1 sequence (Q9UI30 1-125 partner)
In words: CETSA in Caco-2 cells, KMT9. The format is cell-based. The arrangement: of endogenous KMT9 upon treatment with; endogenous in cells; host or cells: Caco-2. The following applies: 15 μM. Here is the method: as §1, §2, §3

The subject of series [13] is Caco-2 cells. In words: Cell proliferation assay (X-Celligence), Caco-2. The format is cell-based. The following applies: Xcelligence, vs DMSO. Here is the method:
Cell proliferation was determined using the X-Celligence RTCA system (Roche). For real-time recording of SW480, Caco-2 cell proliferation, 5000 cells/well were seeded in 16 well E-plates (Roche). […] Cell indices were automatically recorded every 15 min. Relative velocities represent the change of the cell index over time. The sequences of the siRNAs (Stealth RNAi siRNAs; Life Technologies) used in the experiments have been previously described.

Where two headings read alike, the source gives them in different places.

With `NCCCN(CC[C@H](N)C(=O)O)C[C@H]1O[C@@H](n2cnc3c(N)ncnc32)[C@H](O)[C@@H]1O` [compound 2d, (S)-2-Amino-4-((((2R,3S,4R,5R)-5-(6-amino-9H-purin-9-yl)-3,4-dihydroxytetrahydrofuran-2-yl)methyl)(3-aminopropyl)amino)butanoic acid], the IC50 – broadly, the concentration needed to halve the response being measured – in series [1] was 29 nM. Moreover, in [2], the Kd – broadly, the equilibrium constant for the complex coming apart – is 10 nM. Also, the “Increase of binding compared to compound 1” value in series [3] (Kd ratio vs compound 1) is “about 1000 fold”. The ΔTm – broadly, the shift of the melting midpoint relative to a reference – in series [4] was “ΔTm= 18.12 K”.

As for `CNc1ncnc2c1ccn2[C@@H]1C[C@H](CN(CCCNCCc2ccc(Oc3ccc(Cl)cc3)c(F)c2)CC[C@H](N)C(=O)O)[C@@H](O)[C@H]1O` [compound 7b, (s)-2-Amino-4-((3-((4-(4-chlorophenoxy)-3-fluorophenethyl)amino)propyl) (((1R,2R,3S,4R)-2,3-dihydroxy-4-(4-(methylamino)-7H-pyrrolo[2,3-d]pyrimidin-7-yl)cyclopentyl)methyl)amino)butanoic Acid], the IC50 in series [5] is 160 nM. In addition, the ΔTm at 500 µM in [6] amounted to 19.7 °C. For the same compound, the ΔTm at 10 µM in [7] is 1.1 °C; in [8], 1.8 °C; in [9] it was 10.9 °C. Moreover, the Kd in series [3] (given in nM) is 12 nM; in [3], 10 nM.

As to `CNc1ncnc2c1ccn2[C@@H]1C[C@H](CN(CCCNCCc2ccccc2)CC[C@H](N)C(=O)O)[C@@H](O)[C@H]1O` [compound 6, (S)-2-Amino-4-((((1R,2R,3S,4R)-2,3-dihydroxy-4-(4-(methylamino)-7H-pyrrolo[2,3-d]pyrimidin-7-yl)cyclopentyl)methyl)(3-(phenethylamino)propyl)amino)butanoic acid], the Kd in [3] (given in nM) amounted to 30 nM. Also, the “Selectivity against SET-domain containing and Rossmann-fold MTs” value in series [10] was “selective for KMT9 against other MTs”.

Consider “Ethyl (S)-2-amino-4-((3-(4-(4-chlorophenoxy)-3-fluorophenethoxy)propyl) (((1R,2R,3S,4R)-2,3-dihydroxy-4-(4-(methylamino)-7H-pyrrolo[2,3-d]pyrimidin-7-yl)cyclopentyl)methyl)amino)butanoate [compound 8-N]”, for which the “Levels of H4K12me1” value in series [11] is “no effect was observed”. For the same compound, the “ΔTm of KMT9 (CETSA)” value in series [12] turned out to be 0.1 K. For the same compound, in series [13], the “Proliferation of Caco-2 cells” value is recorded as “fails to do so”. The “ΔTm of endogenous KMT9 (CETSA)” value in series [8] (10 μM) is reported as −0.6 K.
